# Laboratory results reported in PMC6222476 (Molecules : A Journal of Synthetic Chemistry and Natural …, 2018).
# Like-named read-outs stand apart in the source and are kept apart here.
# Legend:
# [1] = test system: IMR-32 neuroblastoma cell line; test: cells; assay type: cell-based, human; details: SRB assay, 48 h
# Procedure: (§1) All the newly synthesized compounds were screened for their in vitro anticancer activity against six cancer cell lines: SK-MEL-2, MCF-7, IMR-32, MG-63, HT-29 and Hep-G2 by SRB assay, using adriamycin as a standard drug. All the synthesized derivatives 4(a–n) were also tested for their cytotoxic effect on normal cell lines i.e., NIH/3T3 (murine embryonic fibroblast by the SRB assay method. The cell lines were grown in RPMI 1640 medium containing 10% fetal bovine serum and 2 mM L-glutamine. For the present screening experiments, cells were inoculated into 96 well microtiter plates in 90 µL at 5000 cells per well. After cell inoculation, the microtiter plates were incubated at 37 °C, 5% CO2, 95% air and 100% relative humidity for 24 h prior to addition of experimental drugs. Experimental drugs were solubilized in appropriate solvent to prepare stock of 10^−2 concentration. At the time of experiment four 10-fold serial dilutions were made using complete medium. Aliquots of 10 µL of these different drug dilutions were added to the appropriate micro-titer wells already containing 90 µL of medium, resulting in the required final drug concentrations. After compound addition, plates were incubated at standard conditions for 48 h. and assay was terminated by the addition of cold trichloroacetic acid (TCA). Cells were fixed in situ by the gentle addition of […] (final concentration, 10% TCA) and incubated for 60 min at 4 °C. The supernatant was discarded; the plates were washed five times with tap water and air dried.
# (§2) Sulforhodamine B (SRB) solution (50 µL) at 0.4% (w/v) in 1% acetic acid was added to each of the wells, and plates were incubated for 20 min at room temperature. After staining, unbound dye was recovered and the residual dye was removed by washing five times with 1% acetic acid. The plates were air dried. Bound stain was subsequently eluted with 10 mM trizma base, and the absorbance was read on an ELISA plate reader at a wavelength of 540 nm with 690 nm reference wavelength. All the tests were repeated in at least three independent experiments at the concentrations of 10, 20, 40 and 80 µg/mL [57].
# [2] = test system: HT-29 human colon cancer cell line; test: cells; assay type: cell-based; details: for GI50: SRB assay, 48 h, HT-29; for anticancer activity compared with standard drug adriamycin, HT-29: HT-29 (human colon cancer) cell line
# Procedure: as §1, §2
# [3] = test system: Hep-G2 human hepatoma cell line; test: cells; assay type: cell-based; details: for GI50: SRB assay, 48 h, Hep-G2; for anticancer activity compared with standard drug Adriamycin, Hep-G2: Hep-G2 (human hepatoma) cell line
# Procedure: as §1, §2
# [4] = test system: MCF-7 human breast cancer cell line; test: cells; assay type: cell-based; details: 48 h
# Procedure: as §1, §2
# [5] = test system: MG-63 human osteosarcoma cell line; test: cells; assay type: cell-based; details: SRB assay, 48 h
# Procedure: as §1, §2
# [6] = test system: SK-MEL-2 human melanoma cancer cell line; test: cells; assay type: cell-based; details: SRB assay, 48 h, read-out: GI50 SKMEL-2
# Procedure: as §1, §2
# [7] = test system: NIH/3T3 normal murine embryonic fibroblast cell line; test: in vitro; assay type: cell-based; details: SRB assay
# Procedure: as §1, §2
# [8] = test system: Swiss albino mice; test: In vivo acute oral toxicity study and gross behavioral studies (OECD Guideline no. 425); set-up: key to Additional Observation: Convulsions / Behavioral Observation: Motor Activity / Behavioral Observation: Stereotypy / Behavioral Observation: Tremors / Behavioral Observation: Catalepsy / Behavioral Observation: Sedation / Behavioral Observation: Hypnosis / Behavioral Observation: Muscle Spasm / Behavioral Observation: Analgesia / Behavioral Observation: Arching & Rolling / Additional Observation: Skin and Fur / Additional Observation: Eyes Lacrimation / Additional Observation: Salivation / Additional Observation: Diarrhea / Additional Observation: Respiration / Additional Observation: Straub Tail / Additional Observation: Pilo Erection: N. no; Y: Yes; details: for Additional Observation: Convulsions / Additional Observation: Diarrhea / Additional Observation: Eyes Lacrimation / Additional Observation: Pilo Erection / Additional Observation: Respiration / Additional Observation: Salivation / Additional Observation: Skin and Fur / Additional Observation: Straub Tail / Behavioral Observation: Analgesia / Behavioral Observation: Arching & Rolling / Behavioral Observation: Catalepsy / Behavioral Observation: Hypnosis / Behavioral Observation: Motor Activity / Behavioral Observation: Muscle Spasm / Behavioral Observation: Sedation / Behavioral Observation: Stereotypy / Behavioral Observation: Tremors / No. of Death / Toxicity: Swiss albino mice; for Additional Observation: Convulsions / Additional Observation: Diarrhea / Additional Observation: Eyes Lacrimation / Additional Observation: Pilo Erection / Additional Observation: Respiration / Additional Observation: Salivation / Additional Observation: Skin and Fur / Additional Observation: Straub Tail / Behavioral Observation: Analgesia / Behavioral Observation: Arching & Rolling / Behavioral Observation: Catalepsy / Behavioral Observation: Hypnosis / Behavioral Observation: Motor Activity / Behavioral Observation: Muscle Spasm / Behavioral Observation: Sedation / Behavioral Observation: Stereotypy / Behavioral Observation: Tremors: single oral dose; for No. of Death / Toxicity: single oral dose 100-2000 mg/kg; for lethal dose / mortality: mice, oral; for mortality: up to 2000 mg/kg
# Procedure: The in vivo acute oral toxicity study for the newly synthesized scaffolds 4b and 4h was performed according to the OECD Guideline no. 425 [60] using Swiss albino mice (18–22 gm weight) quarantined at the animal house at Y.B. Chavan College of Pharmacy, Aurangabad IAEC approval number CPCSEA/IAEC/P’col-52/2015-16/115. Each group consisted of six mice (overnight fasted) and kept in a colony cage at 25 ± 2 °C with 55% relative humidity and 12 h of light and dark cycle. A specified dose of 100, 250, 500, 750, 1000, 1500 and 2000 mg/kg body weight of mice was administered orally as a single dose. The acute toxic symptoms and the behavioral changes produced by the test compounds were observed continuously for 4 h periods at 8th, 12th and 24th h. Onset of toxic symptoms and the gross behavioral changes were also recorded. These animals were maintained for further 10 days with observations made daily. In case the animal appeared moribund (dying) the animal was sacrificed in a humane way and it is considered to have died because of toxicity.
# [9] = in vitro; assay type: cell-based; details: mouse, SRB assay, normal murine embryonic fibroblast cell line; for GI50: read-out: GI50 NIH/3T3
# Procedure: as §1, §2
structure (smiles),measurement,setting,value
"CCOP(=O)(OCC)C(NN=C1C(=O)Nc2ccccc21)c1ccccc1 (centres unmarked) [4a, Diethyl(phenyl)(2-(2-oxoindolin-3-ylidene)hydrazinyl)methylphosphonate]",GI50,[1],> 100 µM
same,GI50,[2],56.9 µM
same,GI50,[3],55.2 µM
same,GI50,[4]; SRB assay,> 100 µM
same,GI50,[5],< 0.1 µM
same,GI50,[6],56.9 µM
same,GI50,[7],> 250 µM
"CCOP(=O)(OCC)C(NN=C1C(=O)Nc2ccccc21)c1ccc(Cl)cc1 (centres unmarked) [4b, Diethyl(4-chlorophenyl)(2-(2-oxoindolin-3-ylidene)hydrazinyl)methylphosphonate]",GI50,[1],> 100 µM
same,GI50,[2],46.9 µM
same,GI50,[3],18.6 µM
same,GI50,[4]; SRB assay,67.2 µM
same,GI50,[5],< 0.1 µM
same,GI50,[6],41.4 µM
same,GI50,[7],> 250 µM
same,Additional Observation: Convulsions,[8],N
same,Additional Observation: Diarrhea,[8],N
same,Additional Observation: Eyes Lacrimation,[8],N
same,Additional Observation: Pilo Erection,[8],Y
same,Additional Observation: Respiration,[8],N
same,Additional Observation: Salivation,[8],N
same,Additional Observation: Skin and Fur,[8],N
same,Additional Observation: Straub Tail,[8],N
same,Behavioral Observation: Analgesia,[8],N
same,Behavioral Observation: Arching & Rolling,[8],N
same,Behavioral Observation: Catalepsy,[8],N
same,Behavioral Observation: Hypnosis,[8],N
same,Behavioral Observation: Motor Activity,[8],N
same,Behavioral Observation: Muscle Spasm,[8],N
same,Behavioral Observation: Sedation,[8],N
same,Behavioral Observation: Stereotypy,[8],N
same,Behavioral Observation: Tremors,[8],N
same,No. of Death,[8],Nil
same,Toxicity,[8],free of any toxicity and Nil
same,lethal dose,[8],above 2000 mg/kg body weight
same,mortality,[8],No mortality
"CCOP(=O)(OCC)C(NN=C1C(=O)Nc2ccccc21)c1ccc(F)cc1 (centres unmarked) [4c, Diethyl(4-flurophenyl)(2-(2-oxoindolin-3-ylidene)hydrazinyl)methylphosphonate]",GI50,[1],> 100 µM
same,GI50,[2],20.8 µM
same,GI50,[3],32 µM
same,GI50,[4]; SRB assay,> 100 µM
same,GI50,[5],< 0.1 µM
same,GI50,[6],57.5 µM
same,GI50,[7],> 250 µM
"CCOP(=O)(OCC)C(NN=C1C(=O)Nc2ccccc21)c1ccc(OC)cc1 (centres unmarked) [4d, (Z)-Diethyl(4-methoxyphenyl)(2-(2-oxoindolin-3-ylidene)hydrazinyl)methylphosphonate]",GI50,[1],> 100 µM
same,"anticancer activity compared with standard drug adriamycin, HT-29",[2],equipotent
same,GI50,[2],< 0.1 µM
same,GI50,[3],45.3 µM
same,GI50,[4]; SRB assay,> 100 µM
same,GI50,[5],< 0.1 µM
same,GI50,[6],65.7 µM
same,GI50,[7],> 250 µM
"CCOP(=O)(OCC)C(NN=C1C(=O)Nc2ccccc21)c1ccc(OC)c(OC)c1 (centres unmarked) [4e, Diethyl(3,4-dimethoxyphenyl)(2-(2-oxoindolin-3-ylidene)hydrazinyl)methylphosphonate]",GI50,[1],> 100 µM
same,"anticancer activity compared with standard drug adriamycin, HT-29",[2],equipotent
same,GI50,[2],< 0.1 µM
same,GI50,[3],12.2 µM
same,GI50,[4]; SRB assay,> 100 µM
same,GI50,[5],< 0.1 µM
same,GI50,[6],55.2 µM
same,GI50,[7],> 250 µM
"CCOc1cc(C(N/N=C2\C(=O)Nc3ccccc32)P(=O)(OCC)OCC)ccc1O (centres unmarked) [4h, (Z)-Diethyl(3-ethoxy-4-hydroxyphenyl)(2-(2-oxoindolin-3-ylidene)hydrazinyl)methylphosphonate]",GI50,[1],> 100 µM
same,GI50,[2],4.1 µM
same,GI50,[3],43.8 µM
same,GI50,[4]; SRB assay,70.7 µM
same,GI50,[5],< 0.1 µM
same,GI50,[6],51 µM
same,GI50,[7],> 250 µM
same,Additional Observation: Convulsions,[8],N
same,Additional Observation: Diarrhea,[8],N
same,Additional Observation: Eyes Lacrimation,[8],N
same,Additional Observation: Pilo Erection,[8],Y
same,Additional Observation: Respiration,[8],N
same,Additional Observation: Salivation,[8],N
same,Additional Observation: Skin and Fur,[8],N
same,Additional Observation: Straub Tail,[8],N
same,Behavioral Observation: Analgesia,[8],N
same,Behavioral Observation: Arching & Rolling,[8],N
same,Behavioral Observation: Catalepsy,[8],N
same,Behavioral Observation: Hypnosis,[8],N
same,Behavioral Observation: Motor Activity,[8],Y
same,Behavioral Observation: Muscle Spasm,[8],N
same,Behavioral Observation: Sedation,[8],N
same,Behavioral Observation: Stereotypy,[8],N
same,Behavioral Observation: Tremors,[8],N
same,No. of Death,[8],Nil
same,Toxicity,[8],free of any toxicity and Nil
same,lethal dose,[8],above 2000 mg/kg body weight
same,mortality,[8],No mortality
"CCOP(=O)(OCC)C(N/N=C1\C(=O)Nc2ccccc21)c1cccs1 (centres unmarked) [4i, (Z)-Diethyl(2-(2-oxoindolin-3-ylidene)hydrazinyl)(thiophen-2-yl)methylphosphonate]",GI50,[1],> 100 µM
same,"anticancer activity compared with standard drug adriamycin, HT-29",[2],equipotent
same,GI50,[2],< 0.1 µM
same,"anticancer activity compared with standard drug Adriamycin, Hep-G2",[3],equipotent
same,GI50,[3],< 0.1 µM
same,GI50,[4]; SRB assay,> 100 µM
same,GI50,[5],< 0.1 µM
same,GI50,[6],55.5 µM
same,GI50,[7],> 250 µM
"CCOP(=O)(OCC)C(NN=C1C(=O)Nc2ccccc21)c1ccco1 (centres unmarked) [4j, (Z)-Diethylfuran-2-yl(2-(2-oxoindolin-3-ylidene)hydrazinyl)methylphosphonate]",GI50,[1],> 100 µM
same,"anticancer activity compared with standard drug adriamycin, HT-29",[2],equipotent
same,GI50,[2],< 0.1 µM
same,GI50,[3],44.6 µM
same,GI50,[4]; SRB assay,> 100 µM
same,GI50,[5],< 0.1 µM
same,GI50,[6],93.9 µM
same,GI50,[7],> 250 µM
"CCOP(=O)(OCC)C(N/N=C1\C(=O)Nc2ccccc21)c1ccccc1O (centres unmarked) [4k, (Z)-Diethyl (2-hydroxyphenyl)(2-(2-oxoindolin-3-ylidene)hydrazinyl)methylphosphonate]",GI50,[1]; Homo sapiens,44.1 µM
same,GI50,[2]; Homo sapiens,26.1 µM
same,GI50,"[3]; Homo sapiens, HepG2",11.7 µM
same,GI50,"[4]; Homo sapiens, MCF7, SRB assay",> 100 µM
same,GI50,[5]; Homo sapiens,< 0.1 µM
same,GI50,[6]; Homo sapiens,66.2 µM
same,GI50,[9],> 250 µM
same,melting point,,152 to 154 °C
"CCOP(=O)(OCC)C(N/N=C1\C(=O)Nc2ccccc21)c1ccc(O)c(C)c1 (centres unmarked) [4l, (Z)-Diethyl (4-hydroxy-3-methylphenyl)(2-(2-oxoindolin-3-ylidene)hydrazinyl)methylphosphonate]",GI50,[1]; Homo sapiens,89.8 µM
same,"anticancer activity compared with standard drug adriamycin, HT-29",[2],equipotent
same,GI50,[2]; Homo sapiens,< 0.1 µM
same,"anticancer activity compared with standard drug Adriamycin, Hep-G2",[3],equipotent
same,GI50,"[3]; Homo sapiens, HepG2",< 0.1 µM
same,GI50,"[4]; Homo sapiens, MCF7, SRB assay",78.4 µM
same,GI50,[5]; Homo sapiens,< 0.1 µM
same,GI50,[6]; Homo sapiens,76.4 µM
same,GI50,[9],> 250 µM
same,melting point,,190 to 192 °C
"COc1cccc2c1C(=O)c1c(O)c3c(c(O)c1C2=O)C[C@@](O)(C(=O)CO)C[C@@H]3O[C@H]1C[C@H](N)[C@H](O)[C@H](C)O1 [ADR, Adriamycin, reference compound]",GI50,[1]; Homo sapiens,< 0.1 µM
same,GI50,[2]; Homo sapiens,< 0.1 µM
same,GI50,"[3]; Homo sapiens, HepG2",< 0.1 µM
same,GI50,"[4]; Homo sapiens, MCF7, SRB assay",< 0.1 µM
same,GI50,[5]; Homo sapiens,< 0.1 µM
same,GI50,[6]; Homo sapiens,< 0.1 µM
same,GI50 at 48 h,[9]; NIH/3T3 normal murine embryonic fibroblast cells,82.2 µM
